Structures are written as SMILES.

This assay has as its system HBV. As to the kind of experiment: HepAD38 anti-HBV assay: reduction of viral product accumulation (virion DNA qPCR, HBsAg/HBeAg ELISA). The assay is classed as cell-based. Conditions: Hepatitis B virus, 120 h; HepAD38 cells; concentration reducing viral product accumulation by 50% relative to no drug controls; harvest five days after compound addition; read-out: HepAD38 EC50. Summed up: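 Tetracycline-free HepAD38 cells treated 5 days with compound (1:200 DMSO dilution), or 8 days with media and compound refreshed on d2 and d5. Virion DNA quantified by qPCR; HBsAg or HBeAg by ELISA. EC50 is the concentration reducing viral product accumulation 50% versus no-drug controls.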
For orientation: Real-time PCR tracks product formation cycle by cycle.
The term EC50 denotes the concentration that produces a half-maximal response. For the compound `OCC(O)[C@]1(F)CC2=C(c3ccn(C(F)F)n3)[C@H](c3ccc(F)cc3Cl)N=C(c3nccs3)N2C1` (stereo partly shown) [Example 169], the EC50 lay within 100 to 400 nM.
In the case of `CCOC(=O)/C=C/[C@@]1(F)CC2=C(c3ccn(C(F)F)n3)[C@H](c3ccc(F)cc3Cl)N=C(c3nccs3)N2C1` [Example 173] it was below 100 nM.
With `COC(=O)c1cccc(S(=O)(=O)NC[C@]2(O)CC3=C(c4ccn(C(F)F)n4)[C@H](c4ccc(F)cc4Cl)N=C(c4nccs4)N3C2)c1` [Example 130], the EC50 was in the range of 100 to 400 nM.
`Fc1ccc([C@@H]2N=C(c3nccs3)N3C[C@@H](Nc4ccccn4)CC3=C2c2ccn(C(F)F)n2)c(Cl)c1` [Example 418]: the EC50 was in the range of 100 to 400 nM.
Take `O=C(N[C@H]1CC2=C(c3ccn(C(F)F)n3)[C@H](c3ccc(F)cc3Cl)N=C(c3nccs3)N2C1)OC1CCCCC1` [Example 251]: the EC50 was below 100 nM.
In the case of `O=S(=O)(CCN1CCOCC1)N[C@H]1CC2=C(c3ccn(C(F)F)n3)[C@H](c3ccc(F)cc3Cl)N=C(c3nccs3)N2C1` [Example 56] it was 100 to 400 nM; in that of `O[C@]1(Cn2cccn2)CC2=C(c3ccn(C(F)F)n3)[C@H](c3ccc(F)cc3Cl)N=C(c3nccs3)N2C1` [Example 120], above 400 nM.
`O=C(N[C@H]1CC2=C(c3ccn(C(F)F)n3)[C@H](c3ccc(F)cc3Cl)N=C(c3nccs3)N2C1)N1CCC(O)(c2ccccn2)CC1` [Example 243]: the EC50 was in the range of 100 to 400 nM.
In the case of `O=S(=O)(CCN1CCCC1)N[C@H]1CC2=C(c3ccn(C(F)F)n3)[C@H](c3ccc(F)cc3Cl)N=C(c3nccs3)N2C1` [Example 54] it was 100 to 400 nM; in that of `C=CCNC[C@@]1(N)CC2=C(c3ccn(C(F)F)n3)[C@H](c3ccc(F)cc3Cl)N=C(c3nccs3)N2C1` [Example 149], above 400 nM; in that of `O=C(N[C@H]1CC2=C(c3ccn(C(F)F)n3)[C@H](c3ccc(F)cc3Cl)N=C(c3nccs3)N2C1)N1CCC[C@H](O)C1` [Example 229], 100 to 400 nM.
Take `O=C(O)CCS(=O)(=O)N[C@H]1CC2=C(c3ccn(C(F)F)n3)[C@H](c3ccc(F)cc3Cl)N=C(c3nccs3)N2C1` [Example 10]: the EC50 was above 400 nM.
Consider `O=C(N[C@H]1CC2=C(c3ccn(C(F)F)n3)[C@H](c3ccc(F)cc3Cl)N=C(c3nccs3)N2C1)N1CC[C@H](O)C1` [Example 224], for which the EC50 was below 100 nM.
In the case of `O=S(=O)(N[C@H]1CC2=C(c3ccn(C(F)F)n3)[C@H](c3ccc(F)cc3Cl)N=C(c3nccs3)N2C1)c1cccc(-n2cccn2)n1` [Example 423] it was 100 to 400 nM.
With `COCCN(C)S(=O)(=O)N(C)[C@H]1CC2=C(c3ccn(C(F)F)n3)[C@H](c3ccc(F)cc3Cl)N=C(c3nccs3)N2C1` [Example 268], the EC50 was below 100 nM.
In the case of `COC(=O)c1ccc(S(=O)(=O)NCC2(F)CC3=C(c4ccn(C(F)F)n4)[C@H](c4ccc(F)cc4Cl)N=C(c4nccs4)N3C2)cc1` (stereo partly shown) [Example 191] it was above 400 nM; in that of `CC(C)(C)OC(=O)N1CCN(C(=O)N[C@H]2CC3=C(c4ccn(C(F)F)n4)[C@H](c4ccc(F)cc4Cl)N=C(c4nccs4)N3C2)CC1` [Example 220], above 400 nM.
As for `O=C(O)CC1CCN(C(=O)CC2CCN(CCS(=O)(=O)N[C@H]3CC4=C(c5ccn(C(F)F)n5)[C@H](c5ccc(F)cc5Cl)N=C(c5nccs5)N4C3)CC2)CC1` [Example 64], the EC50 was above 400 nM.
For the compound `O=C(NCc1ccccn1)N[C@H]1CC2=C(c3ccn(C(F)F)n3)[C@H](c3ccc(F)cc3Cl)N=C(c3nccs3)N2C1` [Example 217], the EC50 was above 400 nM.
The same measure for `CS(=O)(=O)C[C@@]1(O)CC2=C(c3ccn(C(F)F)n3)[C@H](c3ccc(F)cc3Cl)N=C(c3nccs3)N2C1` [Example 144]: 100 to 400 nM; for `O=C(N[C@H]1CC2=C(c3ccn(C(F)F)n3)[C@H](c3ccc(F)cc3Cl)N=C(c3nccs3)N2C1)N1CCC(CO)CC1` [Example 216]: 100 to 400 nM.
Regarding `O=C(O)CCCCS(=O)(=O)N[C@H]1CC2=C(c3ccn(C(F)F)n3)[C@H](c3ccc(F)cc3Cl)N=C(c3nccs3)N2C1` [Example 19], the EC50 was 100 to 400 nM.
The same measure for `COC(=O)c1cccc(S(=O)(=O)N[C@H]2CC3=C(c4ccn(C(F)F)n4)[C@H](c4ccc(F)cc4Cl)N=C(c4nccs4)N3C2)c1` [Example 2]: below 100 nM.
`C=CCN(C[C@@]1(O)CC2=C(c3ccn(C(F)F)n3)[C@H](c3ccc(F)cc3Cl)N=C(c3nccs3)N2C1)S(C)(=O)=O` [Example 128]: the EC50 is above 400 nM.
The same measure for `O=S(=O)(N[C@H]1CC2=C(c3ccn(C(F)F)n3)[C@H](c3ccc(F)cc3Cl)N=C(c3nccs3)N2C1)C1CC(OCc2ccccc2)C1` (stereo partly shown) [Example 296]: below 100 nM.
Consider `COC(=O)c1ccccc1S(=O)(=O)NC[C@]1(F)CC2=C(c3ccn(C(F)F)n3)[C@H](c3ccc(F)cc3Cl)N=C(c3nccs3)N2C1` [Example 189], for which the EC50 is above 400 nM.
Consider `CS(=O)(=O)CCS(=O)(=O)N[C@H]1CC2=C(c3ccn(C(F)F)n3)[C@H](c3ccc(F)cc3Cl)N=C(c3nccs3)N2C1` [Example 328], for which the EC50 was below 100 nM.
In the case of `O=S(=O)(N[C@H]1CC2=C(c3ccn(C(F)F)n3)[C@H](c3ccc(F)cc3Cl)N=C(c3nccs3)N2C1)NC1(Cc2ccccn2)CC1` [Example 325] it was 100 to 400 nM; in that of `COC(=O)NC[C@]1(F)CC2=C(c3ccn(C(F)F)n3)[C@H](c3ccc(F)cc3Cl)N=C(c3nccs3)N2C1` [Example 185], 100 to 400 nM.
Take `C=CC(O)C1(F)CC2=C(c3ccn(C(F)F)n3)[C@H](c3ccc(F)cc3Cl)N=C(c3nccs3)N2C1` (stereo partly shown) [Example 181]: the EC50 fell in the range of 100 to 400 nM.
`CS(=O)(=O)C[C@]1(O)CC2=C(c3ccn(C(F)F)n3)[C@H](c3ccc(F)cc3Cl)N=C(c3nccs3)N2C1` [Example 145]: the EC50 was above 400 nM.
The same measure for `O=S(=O)(CCN1CCC(O)CC1)N[C@H]1CC2=C(c3ccn(C(F)F)n3)[C@H](c3ccc(F)cc3Cl)N=C(c3nccs3)N2C1` [Example 57]: below 100 nM.
On to `CCOC(=O)CN([C@H]1CC2=C(c3ccn(C(F)F)n3)[C@H](c3ccc(F)cc3Cl)N=C(c3nccs3)N2C1)S(=O)(=O)c1cnn(CC(=O)OCC)c1` [Example 39], for which the EC50 was above 400 nM.
With `O=S(=O)(N[C@H]1CC2=C(c3ccn(C(F)F)n3)[C@H](c3ccc(F)cc3Cl)N=C(c3nccs3)N2C1)c1c(Cl)cccc1Cl` [Example 402], the EC50 was 100 to 400 nM.
The same measure for `O=S(=O)(N[C@H]1CC2=C(c3ccn(C(F)F)n3)[C@H](c3ccc(F)cc3Cl)N=C(c3nccs3)N2C1)N1CCCC1c1cccnc1` (stereo partly shown) [Example 283]: 100 to 400 nM; for `O[C@@]1(CNCc2ccccc2)CC2=C(c3ccn(C(F)F)n3)[C@H](c3ccc(F)cc3Cl)N=C(c3nccs3)N2C1` [Example 119]: above 400 nM; for `O=C(Cc1ccccn1)N[C@H]1CC2=C(c3ccn(C(F)F)n3)[C@H](c3ccc(F)cc3Cl)N=C(c3nccs3)N2C1` [Example 326]: 100 to 400 nM.
On to `O=C(N[C@H]1CC2=C(c3ccn(C(F)F)n3)[C@H](c3ccc(F)cc3Cl)N=C(c3nccs3)N2C1)N1CCC(O)(c2ncc[nH]2)CC1` [Example 247], for which the EC50 was above 400 nM.
`O=S(=O)(Nc1ccccc1)N[C@H]1CC2=C(c3ccn(C(F)F)n3)[C@H](c3ccc(F)cc3Cl)N=C(c3nccs3)N2C1` [Example 82]: the EC50 lay in the range of 100 to 400 nM.
`O=S(=O)(N[C@H]1CC2=C(c3ccn(C(F)F)n3)[C@H](c3ccc(F)cc3Cl)N=C(c3nccs3)N2C1)N1CCC2(CC2)C1` [Example 286]: the EC50 was below 100 nM.

For the origin of these results see US11472808B2, “Substituted pyrrolo[1,2-c]pyrimidines as hepatitis B antiviral agents” (Enanta Pharmaceuticals, Inc., priority 2019, dated 2022).
